Assay results published in patent publication US20200268716A1, “LULICONAZOLE AS ANTI-ACANTHAMOEBA AGENT AND METHOD FOR PRODUCING THE SAME” (Pola Pharma Inc., priority 2015, published 2020).
In brackets after ≈: the same amount, converted by molar mass.

Tests used:
[1] = system: Acanthamoeba polyphaga (A. polyphaga); test: Growth inhibition of Acanthamoeba polyphaga by solid luliconazole crystals (1 mg added to culture); assay type: cell-based; settings: 1 mg of solid crystals added after 48 hours preculture; 25° C., 72 hours
Experimental: The anti-Acanthamoeba activities of the crystals in Examples 2 to 6 were examined based on the method in Example 1. In other words, Acanthamoeba polyphaga (A. polyphaga) of which the number of the amoebae was 50,000 with respect to 4.5 mL of ATCC712 medium was dispersed and seeded in 500 μL of medium, and was preliminarily cultured at 25° C. for 48 hours. To the resultant, 1 mg of each of the crystals in Examples 2 to 6 was added to prepare a control and samples. The culture was further continued at 25° C. for 72 hours, and the number of the amoebae in the culture liquid was measured by a Neubauer counting chamber. The control, to which nothing was added, and in which the amoebae were cultured, was used. Growth inhibition rates were calculated from the counted values according to an expression of [(the number of amoebae in control−the number of amoebae in each sample)/the number of amoebae in control]×100.

[2] = system: Acanthamoeba polyphaga (A. polyphaga; clinical isolate); test: Growth inhibition of Acanthamoeba polyphaga by luliconazole in solution (methanol specimen), amoebae counted in a Neubauer counting chamber; assay type: cell-based; settings: 25° C., 72 hours
Experimental: Acanthamoeba polyphaga (A. polyphaga; clinical isolate) was cultured in an ATCC712 medium (hereinafter simply referred to as medium) at 25° C. for 1 week, and the medium was adjusted by adding a medium so that the number of the amoebae was 100,000 amoebae/mL, to make a preculture liquid. A control and samples were prepared by adding 4.3 mL of medium, 200 μL of specimen, and 500 μL of preculture liquid. The amoebae were cultured at 25° C. for 72 hours, and the number of the amoebae was counted by a Neubauer counting chamber.
Luliconazole used in the specimen was obtained as described below. A compound was synthesized according to a method described in Japanese Patent Laid-Open No. 60-218387, an ethyl acetate/normal hexane mixture (5:1) was added, and the resultant was warmed at 60° C. and dissolved under stirring. Crystals were precipitated while stirring the resultant in cooling water at 5° C., were filtered, and dried by sending air at 40° C. for 48 hours to obtain the crystals.
The specimen was prepared using methanol as a solvent so that the final concentration of luliconazole was 0, 5, 10, 20, or 40 μg/mL. The specimen in which the final concentration of luliconazole was 0 μg/mL was used as the control.
Growth inhibition rates were determined based on [(the number of amoebae in control−the number of amoebae in each sample)/the number of amoebae in control]×100. MIC and IC50 were calculated based on the growth inhibition rates by a usual method. MIC was 40 μg/mL, and IC50 was 20 μg/mL.

[3] = calculated from growth inhibition rates

`N#C/C(=C1/SC[C@@H](c2ccc(Cl)cc2Cl)S1)n1ccnc1` [Crystal in Example 6, luliconazole] was tested, and the “Growth Inhibition Rate (%)” value [1] was 54.8%.
`N#C/C(=C1/SC[C@@H](c2ccc(Cl)cc2Cl)S1)n1ccnc1` [Crystal in Example 2, luliconazole] was tested, and the “Growth Inhibition Rate (%)” value [1] was 66.7%.
`N#C/C(=C1/SC[C@@H](c2ccc(Cl)cc2Cl)S1)n1ccnc1` [luliconazole] showed an IC50 [2, 3] of 20 µg/mL (≈ 56.5 µM), an MIC [2, 3] of 40 µg/mL (≈ 113 µM) and an inhibition at 5 µg/mL ([2]; luliconazole final concentration 5 μg/mL, ATCC712 medium, read-out: Inhibition Rate (%)) of 20%. For the same molecule, the inhibition at 10 µg/mL ([2]; luliconazole final concentration 10 μg/mL, ATCC712 medium, read-out: Inhibition Rate (%)) was 40%, the inhibition at 20 µg/mL ([2]; luliconazole final concentration 20 μg/mL, ATCC712 medium, read-out: Inhibition Rate (%)) was 50% and the inhibition at 40 µg/mL ([2]; luliconazole final concentration 40 μg/mL, ATCC712 medium, read-out: Inhibition Rate (%)) was 95%.
In the case of `N#C/C(=C1/SC[C@@H](c2ccc(Cl)cc2Cl)S1)n1ccnc1` [Crystal in Example 4, luliconazole], the “Growth Inhibition Rate (%)” value [1] is reported as 69.6%.
For `N#C/C(=C1/SC[C@@H](c2ccc(Cl)cc2Cl)S1)n1ccnc1` [Crystal in Example 5, luliconazole], the “Growth Inhibition Rate (%)” value [1] was 77.0%.
`N#C/C(=C1/SC[C@@H](c2ccc(Cl)cc2Cl)S1)n1ccnc1` [Crystal in Example 3, luliconazole] was tested, and the “Growth Inhibition Rate (%)” value [1] was 25.9%.
